Experimental data from BigSolDB 2.1.

CC(=O)c1ccc2ccccc2c1O
Conditions | solubility (mole fraction)
in cyclohexane, 292.4 K | 0.0076
in cyclohexane, 296.55 K | 0.0092
in cyclohexane, 300.65 K | 0.0114
in cyclohexane, 304.9 K | 0.014
in cyclohexane, 308.6 K | 0.0173
in cyclohexane, 313.55 K | 0.0222
in cyclohexane, 318.5 K | 0.0285
in cyclohexane, 324.75 K | 0.0382
in cyclohexane, 329.65 K | 0.0511
in cyclohexane, 333.95 K | 0.0679
in cyclohexane, 337.6 K | 0.0872
in cyclohexane, 340.65 K | 0.109
in ethanol, 289.15 K | 0.0049
in ethanol, 292.6 K | 0.0055
in ethanol, 296.25 K | 0.0064
in ethanol, 299.95 K | 0.0075
in ethanol, 304.55 K | 0.0089
in ethanol, 307.95 K | 0.0104
in ethanol, 310.55 K | 0.0117
in ethanol, 312.9 K | 0.013
in ethanol, 316.4 K | 0.015
in ethanol, 319.6 K | 0.0174
in ethanol, 323.4 K | 0.0207
in ethanol, 327.35 K | 0.025
in ethanol, 331.2 K | 0.0313
in ethanol, 334.95 K | 0.0399
in ethanol, 338.65 K | 0.052
in ethanol, 342.25 K | 0.0696
in n-butanol, 280.85 K | 0.0054
in n-butanol, 285.65 K | 0.0065
in n-butanol, 291.55 K | 0.0084
in n-butanol, 295.65 K | 0.0101
in n-butanol, 299.45 K | 0.012
in n-butanol, 303.75 K | 0.0144
in n-butanol, 308.25 K | 0.0179
in n-butanol, 312.75 K | 0.0219
in n-butanol, 318.65 K | 0.0291
in n-butanol, 325.85 K | 0.0431
in n-butanol, 328.95 K | 0.0523
in n-butanol, 332.65 K | 0.0648
in n-butanol, 335.75 K | 0.0788
in n-butanol, 336.45 K | 0.0831
in n-heptane, 290.65 K | 0.008
in n-heptane, 295.25 K | 0.0099
in n-heptane, 299.9 K | 0.0123
in n-heptane, 304.65 K | 0.0153
in n-heptane, 310.15 K | 0.019
in n-heptane, 315.4 K | 0.0239
in n-heptane, 321.65 K | 0.0306
in n-heptane, 327.2 K | 0.0395
in n-heptane, 332.65 K | 0.05
in n-heptane, 338.55 K | 0.0627
in n-heptane, 344.35 K | 0.0898
in n-heptane, 348.35 K | 0.116
in n-hexane, 281.65 K | 0.0045
in n-hexane, 286.55 K | 0.0056
in n-hexane, 289.75 K | 0.0065
in n-hexane, 293.45 K | 0.0077
in n-hexane, 297.35 K | 0.0091
in n-hexane, 301.95 K | 0.0107
in n-hexane, 305.45 K | 0.0129
in n-hexane, 309.95 K | 0.0156
in n-hexane, 314.25 K | 0.0189
in n-hexane, 319.55 K | 0.0236
in n-hexane, 324.05 K | 0.0288

CC(=O)c1c(O)ccc2ccccc12
Conditions | solubility (mole fraction)
in cyclohexane, 292.9 K | 0.0181
in cyclohexane, 296.6 K | 0.0229
in cyclohexane, 300.7 K | 0.0292
in cyclohexane, 304.8 K | 0.0379
in cyclohexane, 308.85 K | 0.0505
in cyclohexane, 312.6 K | 0.068
in cyclohexane, 316.25 K | 0.0957
in cyclohexane, 318.95 K | 0.132
in cyclohexane, 320.35 K | 0.162
in cyclohexane, 321.85 K | 0.19
in ethanol, 285.7 K | 0.0615
in ethanol, 288.9 K | 0.0712
in ethanol, 293.05 K | 0.0859
in ethanol, 297 K | 0.104
in ethanol, 301.15 K | 0.135
in ethanol, 304.55 K | 0.168
in ethanol, 310.05 K | 0.234
in ethanol, 314.65 K | 0.321
in n-butanol, 282.55 K | 0.0555
in n-butanol, 288.55 K | 0.0724
in n-butanol, 293.35 K | 0.0897
in n-butanol, 299 K | 0.117
in n-butanol, 303.95 K | 0.155
in n-butanol, 307.95 K | 0.201
in n-butanol, 311.75 K | 0.257
in n-butanol, 314.95 K | 0.328
in n-butanol, 317.35 K | 0.389
in n-butanol, 318.15 K | 0.408
in n-heptane, 288.75 K | 0.0133
in n-heptane, 293.15 K | 0.0163
in n-heptane, 296.95 K | 0.0198
in n-heptane, 301.8 K | 0.0239
in n-heptane, 302.4 K | 0.0245
in n-heptane, 306.55 K | 0.0305
in n-heptane, 312.05 K | 0.0404
in n-heptane, 317.15 K | 0.056
in n-heptane, 322.05 K | 0.079
in n-heptane, 326.05 K | 0.115
in n-heptane, 328.45 K | 0.166
in n-heptane, 329.25 K | 0.214
in n-hexane, 283.75 K | 0.0082
in n-hexane, 289.25 K | 0.0107
in n-hexane, 295.55 K | 0.0141
in n-hexane, 299.25 K | 0.0175
in n-hexane, 305.2 K | 0.0242
in n-hexane, 310.6 K | 0.032
in n-hexane, 311.45 K | 0.0339
in n-hexane, 314.8 K | 0.0414
in n-hexane, 319.05 K | 0.0529
in n-hexane, 323.45 K | 0.0716
